Laboratory results from patent US20210145972A1, “NAN[…] A NUCLEIC ACID SCAFFOLD AND VIRUS-BINDING PEPTIDE MOIETIES” (FRAUNHOFER-GESELLSCHAFT ZUR FÖRDERUNG DER ANGEWANDTEN …, priority 2017, published 2021).
Entries after “also recorded” stand apart in the source; their conditions may differ. Ends that are not written are not given here.

How the values were obtained:
[1] = test system: Dengue virus; conditions: read-out: virus entry into host cells inhibited by 50% (IC50); cited from earlier work
[2] = test system: Dengue virus 2; test: Focus formation assay; type: cell-based
Protocol: The inhibition of Dengue virus 2 by DET4 peptides and DET4 coupled to DNA nanostructures was investigated by focus formation assay. Target cells were seeded in a 96-well plate the day before infection. In a separate 96 well plate 200-500 virus particles per well were incubated with or without DET4 monomers and DET4-coupled DNA Trimers in different concentrations for 2 hours followed by transfer of the mixtures to confluent target cell monolayers and incubation for 1 h at 37° C.
Subsequently fresh DMEM/2% (v/v) FBS containing 1.6% (w/v) Avicell was added to each well, covering the surface with microcrystalline cellulose to avoid spreading of the virus in the medium and enhancing formation of virus foci. Infected cells were incubated for 4 days followed by washing with PBS and fixing with 70% ethanol. Cells were rinsed with phosphate buffered saline, pH 7.4 (PBS) prior to immunostaining. Virus foci were detected using an Anti-flavivirus mouse monoclonal antibody that recognizes Dengue viruses, followed by horseradish peroxidase-conjugated goat anti-mouse immunoglobulin, and developed using TMB chromogen substrate. After washing, Virus foci were visible in the wells as blue spots that were counted for quantitative analysis. Counting results are presented in the table 1.

[3] = test system: influenza A infection of MDCKII cells; test: Infection inhibition assay using MDCKII cells (cytopathic effect); type: cell-based
Protocol: Also preferred is an infection inhibition assay. The infection inhibition assay using MDCKII cells and the MTT Test (or MTS). Inhibitor (peptide-conjugates DNA nanostructure) and virus are pre-incubated for 10-30 min at room temperature and added to cells (MDCKII for influenza, Vero E6 for Dengue). Viral infection of host cells can be tested after 24-72 h by either crystal violet staining or MTT/MTS reagents. Infected cells will slow down their metabolism and/or die after a certain time.
The inhibition of the influence virus by different DNA scaffolds together with PeB is shown. It can be seen from SPR data in FIG. 8 that the binding of virus particles is increased when more peptides are presented on the DNA scaffold. […] No binding to the virus particles is seen when they are not carrying any peptides.
FIG. 14A: Infection inhibition assay using MDCKII cells. This is a microscopic image of MDCKII cells. The cells form a healthy monolayer. No cytopathic effect (CPE) is seen.
FIG. 14b: Infection inhibition assay using MDCKII cells. This is a microscopic image of MDCKII cells infected with influenza viruses. The cells begin to die. A cytopathic effect (CPE) (rounding up and small aggregations of the cells) is clearly seen.

[4] = molecular target: influenza A hemagglutinin (Influenza A virus, UniProt P03437); conditions: read-out: dissociation constant KD with hemagglutinin; cited from earlier work
[5] = test system: inactivated influenza A virus; type: binding; conditions: flow cell 4 vs flow cell 2
[6] = test system: influenza A viruses; test: Hemagglutination inhibition assay (HAI); type: cell-based; conditions: dilution series, constant virus and blood, FIGS. 11-13

Molecule: AGVKDGKLDF [DET4]
- IC50 [1]: 35 µM
- inhibition of Dengue virus infection of target cells, result in words [2]: not able to inhibit viral infection
- virus foci counted ([2]; 10 μM): 53
- virus foci counted ([2]; 50 μM): 47
- virus foci counted ([2]; 100 μM): 46

Molecule: ARDFYDYDVFYYAMD [PeB, reference compound]
- inhibition of infection / cytopathic effect ([3]; 500 μM): more significant cytopathic effect; also recorded: not enough to inhibit the infection
- Kd [4]: 56.8 µM

Molecule: DNA 4-arm structure with 3×PeB: mimics the N structure with a fourth arm bearing biotin, carrying 3×PeB (ARDFYDYDVFYYAMD; also: stated molecule is a DNA 4-arm structure with biotin arm carrying 3×PeB)
- dissociation time compared to the simple DNA double-strand (SPR) [5]: slower dissociation time

B1: DNA-PeB3: three-branched DNA scaffold of three DNA strands (SEQ ID NOs 2-4) with three PeB peptide moieties, one per strand end (conjugate)
DNA 1: ACTATCTTTGGTCTATTATCTTGAGTCATC
DNA 2: TAGTTGTGTGTGTGTTAGACCAAAGATAGT
DNA 3: GATGACTCAAGATAAACACACACACAACTA
modifications: DNA, backbone and methylation of C not given here; PeB peptide conjugated at one end of each strand
- inhibition of infection / cytopathic effect ([3]; 11 μM, listed as N with 3 peptides): clear inhibition
- inhibition of infection / cytopathic effect ([3]; 11 μM, listed as Trimer “N” with 3×PeB): Virus infection was inhibited
- inhibition of virus binding to RBCs (HAI), result in words [6]: able to inhibit binding of the influenza A virus to red blood cells
- inhibition of virus binding to RBCs (HAI), result in words ([6]; listed as N): concentration-dependent increase in binding
- inhibition of virus binding to RBCs (HAI), result in words ([6]; listed as N_3×PeB): RBCs forming a dot on the bottom of the well can be seen for high concentrations; also recorded: hinder the viruses from binding to RBCs
